Structures are written as SMILES.

Series [1] is described as follows: Saturated solubility in oil phase and blank self-emulsifying concentrate. It counts as physicochemical. To be noted: room temperature 24 hours. How it is done: They were placed at room temperature for 24 hours to observe whether the drug was precipitated. If no drug was precipitated, an appropriate amount of each phospholipid complex was added and operated in the same manner until the drug was precipitated. The supernatant was taken and centrifuged at 12000 r/min for 20 min. Then, the supernatant was taken and the saturated solubility of each flavonoid polyphenol drug-phospholipid complex in the oil phase and the blank self-emulsifying concentrate was determined by the preceding HPLC method.

Series [2] can be described thus: Plasma pharmacokinetics after gavage in rats. It counts as in vivo, Sprague-Dawley rats. To be noted: gavage 40 mg/kg. Here is the method: Test group B: The self-emulsifying composition of baicalein encapsulating baicalein ingredient in Comparative Example 1 (hereinafter labeled OBA-SMEDDS) was administered.
Test group C: Baicalein ingredient (hereinafter labeled BA) was administered.
Sprague-Dawley rats (male, 200 g) were fed for one week before tests, forbidden to eat rather than drink the night before the tests, and supplied with water freely during the tests.
15 rats were randomly divided into three groups (test group A, test group B and test group C, separately), with 5 rats in each group. Gavage (2-3 mL) was provided at a dose of 40 mg/kg. 0.3 mL of blood was taken from the retro-orbital venous plexus at 5, 15, 30, 45, 60 and 75 min and 3, 6, 8, 10, 12 and 24 h after administration, placed in a pre-heparinized 1.5 mL conical centrifuge tube, and centrifuged at 4000 r/min for 15 min. The upper plasma was aspirated, stored in the refrigerator at −80° C., and thawed at normal temperature before determination.
Treatment of plasma samples: 100 μL of plasma was taken, placed in a 1.5 mL conical centrifuge tube, added with 10 μL of ascorbic acid (200 mg/mL), 20 μL of an internal standard solution (500 ng/ml) and 300 μL of methanol, vortexed for 60 s, and centrifuged at 12000 r/min for 10 min. Then, the supernatant was aspirated, placed in a centrifuge tube, concentrated through centrifugation to remove the solvent (40° C.), added with 200 μL of methanol:water (80:20) to be dissolved, vortexed for 30 s, and centrifuged at 12000 r/min for 5 min. 20 μL of the supernatant was injected and the plasma concentration was determined under the following chromatography conditions (liquid chromatography-mass spectrometry).
Chromatography column: Agilent ZORBAX SB C18 column (250 mm×4.6 mm, […]);
Column temperature: 25° C.;
Mobile phase (gradient elution, see Table 11): acetonitrile-0.1% formic acid as an eluent.
Electrospray ion source (ESI), positive ion mode, multiple reaction monitoring (MRM);
Other parameters: an atomizer pressure of 40 psi, a drying gas flowrate of 9 L/min, a drying gas temperature of 350° C., a capillary voltage of 4000V and a split ratio of 1:2.
MRM detection ion pair for quantification: baicalin [M+H]+ 447.0→271.1;

The mark [3] stands for this setting: male, Sprague-Dawley, rat, po, baicalein in plasma.

For the compound `O=c1cc(-c2ccccc2)oc2cc(O)c(O)c(O)c12` [BA, baicalein], the “saturated solubility in the blank self-emulsifying concentrate (drug load of the self-emulsifying composition)” value in series [1] (ethyl oleate:labraosol:transcutol HP 2:5:3) turned out to be 20 mg/g. Further, in series [1] (oil phase ethyl oleate), the “saturated solubility in oil” value worked out at 0.3 mg/g. Further, in series [2] (baicalein in plasma), the “AUC (0-t)” value came to 15864.8 µg·min/L and the “AUC (0-∞)” value came out at 15880.4 µg·min/L. For the same compound, in series [2] (setting [3]), the Cmax (as a rule, the maximum level reached in the sampled fluid or tissue) worked out at 99.1 ± 42 ng/mL and the Tmax – broadly, the time from dosing to the highest level – is 1.25 h. In addition, in series [2] (male, Sprague-Dawley, rat, po, baicalein in plasma, read-out: MRT (0-t) (converted)), the MRT last is 4 h. The MRT inf in series [2] (male, Sprague-Dawley, rat, po, baicalein in plasma, read-out: MRT (0-∞) (converted)) was 4.01 h. Further, the bioavailability (in general, the share of a dose that reaches the circulation, judged against a reference dose that is usually intravenous) in series [2] (male, Sprague-Dawley, rat, po, relative to baicalein ingredient, based on baicalein in plasma) is 100%.

For the origin of these results see patent US11771660B2, “Flavonoid polyphenol drug self-emulsifying composition, preparation method therefor, pharmaceutical composition thereof and application thereof” (priority 2019, dated 2023).
